{"source": "PubChem BioAssay (NCI)", "experiment_in_all_cases": "inhibition of tumour cell growth, NCI panel, 48 h", "key": {"HOP-92 NSCLC": {"system": "HOP-92 NSCLC"}, "SNB-75 CNS": {"system": "SNB-75 CNS"}, "A498 renal": {"system": "A498 renal"}, "SF-268 CNS": {"system": "SF-268 CNS"}, "CAKI-1 renal": {"system": "CAKI-1 renal"}, "HOP-62 NSCLC": {"system": "HOP-62 NSCLC"}, "LOX IMVI melanoma": {"system": "LOX IMVI melanoma"}, "T-47D breast": {"system": "T-47D breast"}, "NCI-H460 lung": {"system": "NCI-H460 lung"}, "HCT-116 colon": {"system": "HCT-116 colon"}, "UACC-257 melanoma": {"system": "UACC-257 melanoma"}, "SNB-19 CNS": {"system": "SNB-19 CNS"}, "RXF 393 renal": {"system": "RXF 393 renal"}, "U251 CNS": {"system": "U251 CNS"}, "SF-295 CNS": {"system": "SF-295 CNS"}, "BT-549 breast": {"system": "BT-549 breast"}, "HT29 colon": {"system": "HT29 colon"}, "SK-MEL-2 melanoma": {"system": "SK-MEL-2 melanoma"}, "DU-145 prostate": {"system": "DU-145 prostate"}, "A549 NSCLC": {"system": "A549 NSCLC"}, "SF-539 CNS": {"system": "SF-539 CNS"}, "MALME-3M melanoma": {"system": "MALME-3M melanoma"}, "COLO 205 colon": {"system": "COLO 205 colon"}, "HS 578T breast": {"system": "HS 578T breast"}, "UACC-62 melanoma": {"system": "UACC-62 melanoma"}, "OVCAR-3 ovarian": {"system": "OVCAR-3 ovarian"}, "HCC-2998 colon": {"system": "HCC-2998 colon"}, "NCI/ADR-RES ovarian": {"system": "NCI/ADR-RES ovarian"}, "M14 melanoma": {"system": "M14 melanoma"}, "HCT-15 colon": {"system": "HCT-15 colon"}, "SK-MEL-28 melanoma": {"system": "SK-MEL-28 melanoma"}, "CCRF-CEM leukemia": {"system": "CCRF-CEM leukemia"}, "786-0 renal": {"system": "786-0 renal"}, "MDA-MB-231 breast": {"system": "MDA-MB-231 breast"}, "UO-31 renal": {"system": "UO-31 renal"}, "SN12C renal": {"system": "SN12C renal"}, "SK-OV-3 ovarian": {"system": "SK-OV-3 ovarian"}, "MCF7 breast": {"system": "MCF7 breast"}, "NCI-H23 lung": {"system": "NCI-H23 lung"}, "SW-620 colon": {"system": "SW-620 colon"}, "OVCAR-8 ovarian": {"system": "OVCAR-8 ovarian"}, "NCI-H226 lung": {"system": "NCI-H226 lung"}, "ACHN renal": {"system": "ACHN renal"}, "SK-MEL-5 melanoma": {"system": "SK-MEL-5 melanoma"}, "KM12 colon": {"system": "KM12 colon"}, "EKVX NSCLC": {"system": "EKVX NSCLC"}, "TK-10 renal": {"system": "TK-10 renal"}, "MDA-N": {"system": "MDA-N"}, "PC-3 prostate": {"system": "PC-3 prostate"}, "RPMI-8226 leukemia": {"system": "RPMI-8226 leukemia"}, "NCI-H522 lung": {"system": "NCI-H522 lung"}, "MDA-MB-435": {"system": "MDA-MB-435"}}, "note": "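These data come from cells grown in 96-well plates and exposed to compound for 48 hours at five concentrations. Definition used: TGI = concentration required for complete inhibition of growth.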", "data": [{"smiles": "Nc1ccc2c(c1)C(=O)c1c(F)cccc1-2", "values": [{"measurement": "TGI", "setting": "HOP-92 NSCLC", "value": 93.3, "unit": "µM"}, {"measurement": "TGI", "setting": "SNB-75 CNS", "value": "> 100", "unit": "µM"}, {"measurement": "TGI", "setting": "A498 renal", "value": "> 100", "unit": "µM"}, {"measurement": "TGI", "setting": "SF-268 CNS", "value": "> 100", "unit": "µM"}, {"measurement": "TGI", "setting": "CAKI-1 renal", "value": "> 100", "unit": "µM"}, {"measurement": "TGI", "setting": "HOP-62 NSCLC", "value": "> 100", "unit": "µM"}, {"measurement": "TGI", "setting": "LOX IMVI melanoma", "value": "> 100", "unit": "µM"}, {"measurement": "TGI", "setting": "T-47D breast", "value": "> 100", "unit": "µM"}, {"measurement": "TGI", "setting": "NCI-H460 lung", "value": "> 100", "unit": "µM"}, {"measurement": "TGI", "setting": "HCT-116 colon", "value": "> 100", "unit": "µM"}, {"measurement": "TGI", "setting": "UACC-257 melanoma", "value": "> 100", "unit": "µM"}, {"measurement": "TGI", "setting": "SNB-19 CNS", "value": "> 100", "unit": "µM"}, {"measurement": "TGI", "setting": "RXF 393 renal", "value": "> 100", "unit": "µM"}, {"measurement": "TGI", "setting": "U251 CNS", "value": "> 100", "unit": "µM"}, {"measurement": "TGI", "setting": "SF-295 CNS", "value": "> 100", "unit": "µM"}, {"measurement": "TGI", "setting": "BT-549 breast", "value": "> 100", "unit": "µM"}, {"measurement": "TGI", "setting": "HT29 colon", "value": "> 100", "unit": "µM"}, {"measurement": "TGI", "setting": "SK-MEL-2 melanoma", "value": "> 100", "unit": "µM"}, {"measurement": "TGI", "setting": "DU-145 prostate", "value": "> 100", "unit": "µM"}, {"measurement": "TGI", "setting": "A549 NSCLC", "value": "> 100", "unit": "µM"}, {"measurement": "TGI", "setting": "SF-539 CNS", "value": 81.1, "unit": "µM"}, {"measurement": "TGI", "setting": "MALME-3M melanoma", "value": "> 100", "unit": "µM"}, {"measurement": "TGI", "setting": "COLO 205 colon", "value": "> 100", "unit": "µM"}, {"measurement": "TGI", "setting": "HS 578T breast", "value": "> 100", "unit": "µM"}, {"measurement": "TGI", "setting": "UACC-62 melanoma", "value": "> 100", "unit": "µM"}, {"measurement": "TGI", "setting": "OVCAR-3 ovarian", "value": "> 100", "unit": "µM"}, {"measurement": "TGI", "setting": "HCC-2998 colon", "value": "> 100", "unit": "µM"}, {"measurement": "TGI", "setting": "NCI/ADR-RES ovarian", "value": "> 100", "unit": "µM"}, {"measurement": "TGI", "setting": "M14 melanoma", "value": "> 100", "unit": "µM"}, {"measurement": "TGI", "setting": "HCT-15 colon", "value": "> 100", "unit": "µM"}, {"measurement": "TGI", "setting": "SK-MEL-28 melanoma", "value": "> 100", "unit": "µM"}, {"measurement": "TGI", "setting": "CCRF-CEM leukemia", "value": "> 100", "unit": "µM"}, {"measurement": "TGI", "setting": "786-0 renal", "value": "> 100", "unit": "µM"}, {"measurement": "TGI", "setting": "MDA-MB-231 breast", "value": "> 100", "unit": "µM"}, {"measurement": "TGI", "setting": "UO-31 renal", "value": "> 100", "unit": "µM"}, {"measurement": "TGI", "setting": "SN12C renal", "value": "> 100", "unit": "µM"}, {"measurement": "TGI", "setting": "SK-OV-3 ovarian", "value": "> 100", "unit": "µM"}, {"measurement": "TGI", "setting": "MCF7 breast", "value": 41.7, "unit": "µM"}, {"measurement": "TGI", "setting": "NCI-H23 lung", "value": "> 100", "unit": "µM"}, {"measurement": "TGI", "setting": "SW-620 colon", "value": "> 100", "unit": "µM"}, {"measurement": "TGI", "setting": "OVCAR-8 ovarian", "value": "> 100", "unit": "µM"}, {"measurement": "TGI", "setting": "NCI-H226 lung", "value": "> 100", "unit": "µM"}, {"measurement": "TGI", "setting": "ACHN renal", "value": "> 100", "unit": "µM"}, {"measurement": "TGI", "setting": "SK-MEL-5 melanoma", "value": 95.1, "unit": "µM"}, {"measurement": "TGI", "setting": "KM12 colon", "value": "> 100", "unit": "µM"}, {"measurement": "TGI", "setting": "EKVX NSCLC", "value": 37.7, "unit": "µM"}, {"measurement": "TGI", "setting": "TK-10 renal", "value": "> 100", "unit": "µM"}, {"measurement": "TGI", "setting": "MDA-N", "value": "> 100", "unit": "µM"}, {"measurement": "TGI", "setting": "PC-3 prostate", "value": "> 100", "unit": "µM"}, {"measurement": "TGI", "setting": "RPMI-8226 leukemia", "value": "> 100", "unit": "µM"}, {"measurement": "TGI", "setting": "NCI-H522 lung", "value": "> 100", "unit": "µM"}, {"measurement": "TGI", "setting": "MDA-MB-435", "value": "> 100", "unit": "µM"}]}]}
